# Laboratory results as given in the NIST ThermoML archive (doi:10.1016/j.fluid.2012.10.024).
# ± gives the expanded uncertainty stated by the source.
# Experiment: xn = mol fraction of the nth substance listed
# Details: 101 kPa, Liquid, Vibrating tube method
structure (smiles),measurement,setting,value
OCc1cccnc1 [β-picolyl alcohol] + O,mass density,"293.15 K, x1 = 0.05",1032.8 ± 0.2 kg/m3
same,mass density,"293.15 K, x1 = 0.1",1056.5 ± 0.2 kg/m3
same,mass density,"293.15 K, x1 = 0.15",1074.5 ± 0.2 kg/m3
same,mass density,"293.15 K, x1 = 0.2",1089.7 ± 0.2 kg/m3
same,mass density,"293.15 K, x1 = 0.25",1098 ± 1 kg/m3
same,mass density,"293.15 K, x1 = 0.3",1106.6 ± 0.3 kg/m3
same,mass density,"293.15 K, x1 = 0.35",1111.4 ± 0.4 kg/m3
same,mass density,"293.15 K, x1 = 0.4",1117 ± 1 kg/m3
same,mass density,"293.15 K, x1 = 0.45",1120.5 ± 0.6 kg/m3
same,mass density,"293.15 K, x1 = 0.5",1123.5 ± 0.7 kg/m3
same,mass density,"293.15 K, x1 = 0.55",1125.9 ± 0.9 kg/m3
same,mass density,"293.15 K, x1 = 0.6",1128 ± 1 kg/m3
same,mass density,"293.15 K, x1 = 0.65",1129.7 ± 1.1 kg/m3
same,mass density,"293.15 K, x1 = 0.7",1131.1 ± 1.3 kg/m3
same,mass density,"293.15 K, x1 = 0.75",1132.3 ± 1.5 kg/m3
same,mass density,"293.15 K, x1 = 0.8",1133.5 ± 1.6 kg/m3
same,mass density,"293.15 K, x1 = 0.85",1134.5 ± 1.8 kg/m3
same,mass density,"293.15 K, x1 = 0.9",1135.2 ± 2 kg/m3
same,mass density,"293.15 K, x1 = 0.95",1136.1 ± 2.3 kg/m3
same,mass density,"293.15 K, x1 = 1",1136.8 ± 2.5 kg/m3
same,mass density,"298.15 K, x1 = 0.05",1031.1 ± 0.2 kg/m3
same,mass density,"298.15 K, x1 = 0.1",1054 ± 0.2 kg/m3
same,mass density,"298.15 K, x1 = 0.15",1071.9 ± 0.2 kg/m3
same,mass density,"298.15 K, x1 = 0.2",1086.6 ± 0.2 kg/m3
same,mass density,"298.15 K, x1 = 0.25",1095 ± 0.3 kg/m3
same,mass density,"298.15 K, x1 = 0.3",1103.4 ± 0.3 kg/m3
same,mass density,"298.15 K, x1 = 0.35",1108.1 ± 0.4 kg/m3
same,mass density,"298.15 K, x1 = 0.4",1113.7 ± 0.5 kg/m3
same,mass density,"298.15 K, x1 = 0.45",1117.2 ± 0.6 kg/m3
same,mass density,"298.15 K, x1 = 0.5",1120.3 ± 0.7 kg/m3
same,mass density,"298.15 K, x1 = 0.55",1122.4 ± 0.8 kg/m3
same,mass density,"298.15 K, x1 = 0.6",1124.7 ± 1 kg/m3
same,mass density,"298.15 K, x1 = 0.65",1126.4 ± 1.1 kg/m3
same,mass density,"298.15 K, x1 = 0.7",1127.8 ± 1.3 kg/m3
same,mass density,"298.15 K, x1 = 0.75",1129 ± 2 kg/m3
same,mass density,"298.15 K, x1 = 0.8",1130.1 ± 1.6 kg/m3
same,mass density,"298.15 K, x1 = 0.85",1131.2 ± 1.8 kg/m3
same,mass density,"298.15 K, x1 = 0.9",1131.8 ± 2 kg/m3
same,mass density,"298.15 K, x1 = 0.95",1132.7 ± 2.2 kg/m3
same,mass density,"298.15 K, x1 = 1",1133.5 ± 2.5 kg/m3
same,mass density,"303.15 K, x1 = 0.05",1028.7 ± 0.2 kg/m3
same,mass density,"303.15 K, x1 = 0.1",1051.1 ± 0.2 kg/m3
same,mass density,"303.15 K, x1 = 0.15",1068.7 ± 0.2 kg/m3
same,mass density,"303.15 K, x1 = 0.2",1083.2 ± 0.2 kg/m3
same,mass density,"303.15 K, x1 = 0.25",1091.4 ± 0.3 kg/m3
same,mass density,"303.15 K, x1 = 0.3",1099.7 ± 0.3 kg/m3
same,mass density,"303.15 K, x1 = 0.35",1104.4 ± 0.4 kg/m3
same,mass density,"303.15 K, x1 = 0.4",1109.9 ± 0.5 kg/m3
same,mass density,"303.15 K, x1 = 0.45",1113.5 ± 0.6 kg/m3
same,mass density,"303.15 K, x1 = 0.5",1116.5 ± 0.7 kg/m3
same,mass density,"303.15 K, x1 = 0.55",1118.6 ± 0.8 kg/m3
same,mass density,"303.15 K, x1 = 0.6",1120.8 ± 1 kg/m3
same,mass density,"303.15 K, x1 = 0.65",1122.5 ± 1.1 kg/m3
same,mass density,"303.15 K, x1 = 0.7",1123.9 ± 1.3 kg/m3
same,mass density,"303.15 K, x1 = 0.75",1125.2 ± 1.4 kg/m3
same,mass density,"303.15 K, x1 = 0.8",1126.3 ± 1.6 kg/m3
same,mass density,"303.15 K, x1 = 0.85",1127.4 ± 1.8 kg/m3
same,mass density,"303.15 K, x1 = 0.9",1128.1 ± 2 kg/m3
same,mass density,"303.15 K, x1 = 0.95",1128.9 ± 2.2 kg/m3
same,mass density,"303.15 K, x1 = 1",1129.6 ± 2.4 kg/m3
same,mass density,"308.15 K, x1 = 0.05",1026.3 ± 0.2 kg/m3
same,mass density,"308.15 K, x1 = 0.1",1048.2 ± 0.2 kg/m3
same,mass density,"308.15 K, x1 = 0.15",1065.5 ± 0.2 kg/m3
same,mass density,"308.15 K, x1 = 0.2",1079.8 ± 0.2 kg/m3
same,mass density,"308.15 K, x1 = 0.25",1088 ± 1 kg/m3
same,mass density,"308.15 K, x1 = 0.3",1096.2 ± 0.3 kg/m3
same,mass density,"308.15 K, x1 = 0.35",1100.8 ± 0.4 kg/m3
same,mass density,"308.15 K, x1 = 0.4",1106.3 ± 0.5 kg/m3
same,mass density,"308.15 K, x1 = 0.45",1109.7 ± 0.6 kg/m3
same,mass density,"308.15 K, x1 = 0.5",1112.8 ± 0.7 kg/m3
same,mass density,"308.15 K, x1 = 0.55",1114.9 ± 0.8 kg/m3
same,mass density,"308.15 K, x1 = 0.6",1117.3 ± 1 kg/m3
same,mass density,"308.15 K, x1 = 0.65",1118.9 ± 1.1 kg/m3
same,mass density,"308.15 K, x1 = 0.7",1120.3 ± 1.3 kg/m3
same,mass density,"308.15 K, x1 = 0.75",1121.6 ± 1.4 kg/m3
same,mass density,"308.15 K, x1 = 0.8",1122.7 ± 1.6 kg/m3
same,mass density,"308.15 K, x1 = 0.85",1123.7 ± 1.8 kg/m3
same,mass density,"308.15 K, x1 = 0.9",1124.5 ± 2 kg/m3
same,mass density,"308.15 K, x1 = 0.95",1125.3 ± 2.2 kg/m3
same,mass density,"308.15 K, x1 = 1",1125.9 ± 2.4 kg/m3
same,mass density,"313.15 K, x1 = 0.05",1024.1 ± 0.2 kg/m3
same,mass density,"313.15 K, x1 = 0.1",1045.5 ± 0.2 kg/m3
same,mass density,"313.15 K, x1 = 0.15",1062.5 ± 0.2 kg/m3
same,mass density,"313.15 K, x1 = 0.2",1076.6 ± 0.2 kg/m3
same,mass density,"313.15 K, x1 = 0.25",1084.7 ± 0.3 kg/m3
same,mass density,"313.15 K, x1 = 0.3",1092.8 ± 0.3 kg/m3
same,mass density,"313.15 K, x1 = 0.35",1097.4 ± 0.4 kg/m3
same,mass density,"313.15 K, x1 = 0.4",1103 ± 1 kg/m3
same,mass density,"313.15 K, x1 = 0.45",1106.4 ± 0.6 kg/m3
same,mass density,"313.15 K, x1 = 0.5",1109.4 ± 0.7 kg/m3
same,mass density,"313.15 K, x1 = 0.55",1111.6 ± 0.8 kg/m3
same,mass density,"313.15 K, x1 = 0.6",1113.8 ± 1 kg/m3
same,mass density,"313.15 K, x1 = 0.65",1115.5 ± 1.1 kg/m3
same,mass density,"313.15 K, x1 = 0.7",1116.9 ± 1.3 kg/m3
same,mass density,"313.15 K, x1 = 0.75",1118.1 ± 1.4 kg/m3
same,mass density,"313.15 K, x1 = 0.8",1119.3 ± 1.6 kg/m3
same,mass density,"313.15 K, x1 = 0.85",1120.3 ± 1.8 kg/m3
same,mass density,"313.15 K, x1 = 0.9",1121.1 ± 2 kg/m3
same,mass density,"313.15 K, x1 = 0.95",1122 ± 2 kg/m3
same,mass density,"313.15 K, x1 = 1",1122.6 ± 2.4 kg/m3
same,mass density,"318.15 K, x1 = 0.05",1021.8 ± 0.2 kg/m3
same,mass density,"318.15 K, x1 = 0.1",1042.8 ± 0.2 kg/m3
same,mass density,"318.15 K, x1 = 0.15",1059.5 ± 0.2 kg/m3
same,mass density,"318.15 K, x1 = 0.2",1073.3 ± 0.2 kg/m3
same,mass density,"318.15 K, x1 = 0.25",1081.4 ± 0.3 kg/m3
same,mass density,"318.15 K, x1 = 0.3",1089.5 ± 0.3 kg/m3
same,mass density,"318.15 K, x1 = 0.35",1094 ± 1 kg/m3
same,mass density,"318.15 K, x1 = 0.4",1099.4 ± 0.5 kg/m3
same,mass density,"318.15 K, x1 = 0.45",1102.9 ± 0.6 kg/m3
same,mass density,"318.15 K, x1 = 0.5",1106 ± 0.7 kg/m3
same,mass density,"318.15 K, x1 = 0.55",1108.2 ± 0.8 kg/m3
same,mass density,"318.15 K, x1 = 0.6",1110.4 ± 1 kg/m3
same,mass density,"318.15 K, x1 = 0.65",1112.1 ± 1.1 kg/m3
same,mass density,"318.15 K, x1 = 0.7",1113.5 ± 1.2 kg/m3
same,mass density,"318.15 K, x1 = 0.75",1114.7 ± 1.4 kg/m3
same,mass density,"318.15 K, x1 = 0.8",1115.9 ± 1.6 kg/m3
same,mass density,"318.15 K, x1 = 0.85",1116.9 ± 1.8 kg/m3
same,mass density,"318.15 K, x1 = 0.9",1117.7 ± 2 kg/m3
same,mass density,"318.15 K, x1 = 0.95",1118.6 ± 2.2 kg/m3
same,mass density,"318.15 K, x1 = 1",1119.3 ± 2.4 kg/m3
